The term Ki denotes the dissociation constant of the complex between target and ligand, obtained from inhibition or displacement. Read a high Ki as lower affinity.

Each structure is given as a SMILES string.

The target in one assay is Beta-secretase 1 (Homo sapiens, UniProt P56817). Kind of assay: Binding affinity to human BACE1 catalytic domain using QSY7-APPswe-Eu as substrate preincubated for 30 mins followed by substrate addition measured after 1.5 hrs by HTRF assay. (In TR-FRET formats the signal depends on donor and acceptor labels being close together.)
In a further assay the target is T1, Beta-secretase 2 (Homo sapiens, UniProt Q9Y5Z0).
T1 sequence (Q9Y5Z0 whole entry): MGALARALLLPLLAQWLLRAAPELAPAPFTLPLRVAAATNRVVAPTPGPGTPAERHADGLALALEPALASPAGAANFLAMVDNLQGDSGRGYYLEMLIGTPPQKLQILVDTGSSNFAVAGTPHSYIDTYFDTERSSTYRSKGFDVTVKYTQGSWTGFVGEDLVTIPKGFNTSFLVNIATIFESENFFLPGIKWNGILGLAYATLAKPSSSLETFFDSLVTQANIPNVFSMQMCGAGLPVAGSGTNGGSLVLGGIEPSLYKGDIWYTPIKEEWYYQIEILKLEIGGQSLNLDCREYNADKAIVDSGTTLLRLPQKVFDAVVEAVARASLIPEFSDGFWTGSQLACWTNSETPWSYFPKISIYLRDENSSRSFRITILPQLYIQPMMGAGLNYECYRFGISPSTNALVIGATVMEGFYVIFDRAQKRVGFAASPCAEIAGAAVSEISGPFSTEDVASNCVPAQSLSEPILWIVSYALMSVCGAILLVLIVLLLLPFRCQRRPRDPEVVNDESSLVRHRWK
Kind of assay: Binding affinity to human autoBACE2 using QSY7-APPswe-Eu as substrate preincubated for 30 mins followed by substrate addition measured after 90 mins by HTRF assay.

Sequence of Beta-secretase 1 (P56817 whole entry, the tested form may be a part): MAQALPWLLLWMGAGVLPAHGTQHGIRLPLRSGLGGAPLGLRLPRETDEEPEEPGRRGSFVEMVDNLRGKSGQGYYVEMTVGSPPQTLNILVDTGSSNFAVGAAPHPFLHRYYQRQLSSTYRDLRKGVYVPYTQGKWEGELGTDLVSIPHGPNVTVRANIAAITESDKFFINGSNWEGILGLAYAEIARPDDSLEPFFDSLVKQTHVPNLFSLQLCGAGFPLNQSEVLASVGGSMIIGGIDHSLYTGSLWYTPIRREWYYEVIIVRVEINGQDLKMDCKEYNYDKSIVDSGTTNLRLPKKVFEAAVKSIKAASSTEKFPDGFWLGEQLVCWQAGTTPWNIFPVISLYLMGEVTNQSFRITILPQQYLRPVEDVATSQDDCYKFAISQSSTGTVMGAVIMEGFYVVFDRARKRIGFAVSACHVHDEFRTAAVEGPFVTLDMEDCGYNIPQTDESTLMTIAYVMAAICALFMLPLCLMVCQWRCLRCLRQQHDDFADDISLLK

As for `COc1cnc2c(C(=O)Nc3ccc(F)c([C@]45CCC[C@H]4S(=O)(=O)N(C)C(=N)N5)c3)nccc2n1`, the Ki at Beta-secretase 1 came out at 36 nM; on Beta-secretase 2 it was 9 nM.
As for `CN1C(=N)N[C@@]2(c3cc(NC(=O)c4nccc5cc(Br)cnc45)ccc3F)CCC[C@H]2S1(=O)=O`, the inhibition constant Ki at Beta-secretase 1 was determined as 4 nM; on Beta-secretase 2, 0.5 nM.
On to `COc1cnc2c(C(=O)Nc3ccc(F)c([C@]45CCC[C@H]4S(=O)(=O)N(C)C(=N)N5)c3)nccc2c1`, for which the Ki at Beta-secretase 1 worked out at 31 nM; at Beta-secretase 2 it was 10 nM.
For `COc1cnc2c(C(=O)Nc3ccc(F)c([C@]45CCC[C@H]4S(=O)(=O)N(C)C(=N)N5)c3)ccnc2c1`, the figures for the Ki on Beta-secretase 1 and on Beta-secretase 2 were 206 nM and 198 nM, respectively.

Source of the values: ChEMBL document CHEMBL4118088, “C5-C6 Carbocyclic-Fused Iminothiadiazine Dioxides as BACE Inhibitors, Their Compositions, and Their Use” (ACS Med Chem Lett, 2017).
